For one assay, the target named is T1, Dd2‐PfATP4^WT (Plasmodium falciparum, UniProt A0A143ZZK9, G1128R).
T1 construct: We prepared membranes from Dd2‐Polδ‐PfATP4^G358S parasites (generated previously[22]) and Dd2‐Polδ parental parasites; endogenous in cells; host or cells: P. falciparum Dd2-Polδ trophozoites (membrane preparation)
T1 sequence (A0A143ZZK9 1-1264 G1128R): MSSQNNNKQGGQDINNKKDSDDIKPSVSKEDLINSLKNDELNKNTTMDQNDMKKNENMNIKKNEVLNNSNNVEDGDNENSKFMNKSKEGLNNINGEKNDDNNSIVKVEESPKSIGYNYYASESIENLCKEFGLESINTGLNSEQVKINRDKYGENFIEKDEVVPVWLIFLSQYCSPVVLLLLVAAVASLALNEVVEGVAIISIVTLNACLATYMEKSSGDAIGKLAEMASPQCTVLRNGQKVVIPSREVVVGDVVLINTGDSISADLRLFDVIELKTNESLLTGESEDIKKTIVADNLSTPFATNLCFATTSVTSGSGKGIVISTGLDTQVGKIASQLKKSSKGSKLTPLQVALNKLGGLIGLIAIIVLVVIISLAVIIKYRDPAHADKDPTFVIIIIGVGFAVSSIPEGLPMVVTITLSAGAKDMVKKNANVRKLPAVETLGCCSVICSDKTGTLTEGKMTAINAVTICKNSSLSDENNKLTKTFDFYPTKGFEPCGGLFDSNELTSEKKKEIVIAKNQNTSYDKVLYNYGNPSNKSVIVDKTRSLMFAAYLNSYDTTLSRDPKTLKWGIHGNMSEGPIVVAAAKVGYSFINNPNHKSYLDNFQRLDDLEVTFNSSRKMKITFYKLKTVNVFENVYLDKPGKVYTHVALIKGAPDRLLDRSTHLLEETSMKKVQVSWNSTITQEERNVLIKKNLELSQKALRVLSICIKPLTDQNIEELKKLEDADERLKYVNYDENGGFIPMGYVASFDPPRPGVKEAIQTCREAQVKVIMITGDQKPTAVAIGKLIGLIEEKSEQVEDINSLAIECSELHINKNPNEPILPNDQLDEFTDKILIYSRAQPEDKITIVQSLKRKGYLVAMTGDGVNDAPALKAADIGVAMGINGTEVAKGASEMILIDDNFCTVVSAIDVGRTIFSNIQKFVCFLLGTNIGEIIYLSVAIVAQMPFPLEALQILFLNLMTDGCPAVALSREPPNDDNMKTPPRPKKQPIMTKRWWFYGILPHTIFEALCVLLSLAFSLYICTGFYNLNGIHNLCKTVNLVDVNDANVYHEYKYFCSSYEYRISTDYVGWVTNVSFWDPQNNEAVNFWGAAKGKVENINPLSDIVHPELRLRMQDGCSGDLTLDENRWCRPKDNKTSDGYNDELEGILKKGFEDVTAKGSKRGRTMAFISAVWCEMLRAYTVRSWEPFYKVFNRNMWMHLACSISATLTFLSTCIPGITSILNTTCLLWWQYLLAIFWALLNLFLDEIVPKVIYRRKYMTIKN
The assay is described as follows: PfATP4 Na+ assay (membrane ATPase), Dd2-Polδ parental membranes. In kind it is biochemical, P. falciparum. The following applies: membranes from Dd2-Polδ parental parasites. The protocol: Figure 4 Dihydroquinazolinone analogs 14 and 36 (WJM062) inhibit Na^+‐ATPase activity in membranes prepared from isolated P. falciparum parasites, consistent with them being PfATP4 inhibitors. (A) The effects of dihydroquinazolinone compounds (2 μM), dihydroartemisinin (DHA; 50 nM; negative control) and 0.2 % v/v DMSO (solvent‐only control) on membrane ATPase activity under high‐[Na^+] conditions (152 mM Na^+) and low‐[Na^+] conditions (2 mM Na^+; stemming from the addition of 1 mM Na2ATP) in the presence and absence of the PfATP4 inhibitor cipargamin (50 nM). The membranes were prepared from isolated trophozoite‐stage 3D7 parasites. The Pi produced is expressed as a percentage of that measured in the 152 mM Na^+ Control. The data are from four independent experiments performed with different membrane preparations; the symbols show the data from individual experiments and the bars show the mean (+SEM). In individual experiments, the Pi produced in the 152 mM Na^+ Control varied from 66 to 96 nmol per mg (total) protein per min. A repeated measures ANOVA with a post hoc Tukey test was used to compare the (pre‐normalised) data for different compounds and conditions. […] In B−D, the Pi production measured in the low‐[Na^+] (2 mM) condition was subtracted from that measured in high‐[Na^+] […] The PfATP4‐associated ATPase activity is expressed as a percentage of that obtained for the high‐[Na^+] […]

Assay [1] deals with T2, PfATP4 (membranes prepared from 3D7 parasites) (Plasmodium falciparum, UniProt A0A143ZZK9).
T2 construct: The membranes were prepared from isolated trophozoite‐stage 3D7 parasites; endogenous in cells; host or cells: P. falciparum 3D7 trophozoites (membrane preparation)
T2 sequence (A0A143ZZK9 whole entry): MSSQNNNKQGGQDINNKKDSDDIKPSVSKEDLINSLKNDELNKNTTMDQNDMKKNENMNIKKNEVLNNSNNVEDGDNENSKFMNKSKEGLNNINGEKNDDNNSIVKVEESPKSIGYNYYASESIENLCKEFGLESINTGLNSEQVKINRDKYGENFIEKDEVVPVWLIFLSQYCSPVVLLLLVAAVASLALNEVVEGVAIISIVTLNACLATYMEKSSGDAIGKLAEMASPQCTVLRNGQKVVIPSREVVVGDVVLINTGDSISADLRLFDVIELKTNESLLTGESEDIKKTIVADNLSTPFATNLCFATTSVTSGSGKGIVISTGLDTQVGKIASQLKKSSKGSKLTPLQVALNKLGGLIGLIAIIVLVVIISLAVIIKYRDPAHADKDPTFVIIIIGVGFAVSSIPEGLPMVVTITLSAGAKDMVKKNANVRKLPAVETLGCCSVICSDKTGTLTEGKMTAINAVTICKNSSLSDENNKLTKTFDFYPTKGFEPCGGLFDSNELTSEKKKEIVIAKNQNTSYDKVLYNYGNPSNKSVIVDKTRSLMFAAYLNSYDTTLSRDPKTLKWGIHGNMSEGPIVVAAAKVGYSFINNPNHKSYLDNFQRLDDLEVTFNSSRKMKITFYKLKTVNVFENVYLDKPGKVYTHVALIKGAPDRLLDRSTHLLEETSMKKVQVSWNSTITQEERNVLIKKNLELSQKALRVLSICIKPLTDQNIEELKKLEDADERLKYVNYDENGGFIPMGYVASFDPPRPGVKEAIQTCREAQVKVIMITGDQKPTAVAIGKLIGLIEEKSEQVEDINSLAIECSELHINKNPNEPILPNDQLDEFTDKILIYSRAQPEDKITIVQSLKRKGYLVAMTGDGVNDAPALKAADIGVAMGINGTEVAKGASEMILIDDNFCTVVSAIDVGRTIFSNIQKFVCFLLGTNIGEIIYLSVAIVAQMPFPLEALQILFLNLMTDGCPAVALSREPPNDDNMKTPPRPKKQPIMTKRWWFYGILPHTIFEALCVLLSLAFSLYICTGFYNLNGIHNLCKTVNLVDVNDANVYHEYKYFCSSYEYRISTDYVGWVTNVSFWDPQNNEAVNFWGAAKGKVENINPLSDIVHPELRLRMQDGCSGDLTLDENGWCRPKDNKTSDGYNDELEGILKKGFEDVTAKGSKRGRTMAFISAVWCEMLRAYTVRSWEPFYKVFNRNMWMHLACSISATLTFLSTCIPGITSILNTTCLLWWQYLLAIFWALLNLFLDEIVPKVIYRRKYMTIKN
Description: PfATP4 Na+ assay (membrane ATPase), 3D7 membranes. As to conditions: for effect on membrane ATPase activity (PfATP4): 2 μM, high-[Na+] (152 mM), cipargamin not present. The class given is biochemical, P. falciparum. The protocol: Figure 4 Dihydroquinazolinone analogs 14 and 36 (WJM062) inhibit Na^+‐ATPase activity in membranes prepared from isolated P. falciparum parasites, consistent with them being PfATP4 inhibitors. (A) The effects of dihydroquinazolinone compounds (2 μM), dihydroartemisinin (DHA; 50 nM; negative control) and 0.2 % v/v DMSO (solvent‐only control) on membrane ATPase activity under high‐[Na^+] conditions (152 mM Na^+) and low‐[Na^+] conditions (2 mM Na^+; stemming from the addition of 1 mM Na2ATP) in the presence and absence of the PfATP4 inhibitor cipargamin (50 nM). The membranes were prepared from isolated trophozoite‐stage 3D7 parasites. The Pi produced is expressed as a percentage of that measured in the 152 mM Na^+ Control. The data are from four independent experiments performed with different membrane preparations; the symbols show the data from individual experiments and the bars show the mean (+SEM). In individual experiments, the Pi produced in the 152 mM Na^+ Control varied from 66 to 96 nmol per mg (total) protein per min. A repeated measures ANOVA with a post hoc Tukey test was used to compare the (pre‐normalised) data for different compounds and conditions. For comparisons between different conditions for the same test compound (or for the Control), significant differences are shown with black asterisks. For comparisons between the Control and a compound under the same test condition, significant differences are shown with coloured asterisks (in this case, grey asterisks, as the only significant differences were between the control and the dihydroquinazolinone compounds in the 152 mM Na^+ condition). ***P<0.001. (B) Concentration‐dependence of the effects of dihydroquinazolinone compounds on PfATP4‐associated ATPase activity in membranes prepared from 3D7 parasites. The data are the mean (shown + or − SEM) obtained from four independent experiments performed with different membrane preparations, with the exception of the lowest and second‐lowest concentrations of the compounds, for which data are from two and three independent experiments, respectively. (C and D) Potency of dihydroquinazolinone compounds against PfATP4‐associated ATPase activity in membranes prepared from Dd2‐Polδ‐PfATP4^G358S parasites (open triangles) and their Dd2‐Polδ parents (closed triangles). The data are the mean (shown + or − SEM) from four (C) or three (D) independent experiments. In B−D, the Pi production measured in the low‐[Na^+] (2 mM) condition was subtracted from that measured in high‐[Na^+] (152 mM) in the presence of each of the different concentrations of dihydroquinazolinone compounds to calculate the PfATP4‐associated ATPase activity. The PfATP4‐associated ATPase activity is expressed as a percentage of that obtained for the high‐[Na^+] (152 mM) Control.
Membrane ATPase assays were performed using a PiColorLock Gold Phosphate Detection System (Innova Biosciences), essentially as described previously.[25] Membranes were prepared either from isolated 3D7 trophozoites or from isolated Dd2‐Polδ‐PfATP4^G358S [22] and Dd2‐Polδ trophozoites.[26]

Data on two molecules can be found in PMC11648822, “Lactam Truncation Yields a Dihydroquinazolinone Scaffold with Potent Antimalarial Activity that Targets PfATP4” (Chemmedchem, 2024).

Structures are written as SMILES.

Consider `CN1C(=O)c2ccc(Cl)cc2NC1(C)C(=O)Nc1cncc(Cl)c1` (stereo not drawn) [Compound 14, 7‐Chloro‐N‐(5‐chloro‐3‐pyridyl)‐2,3‐dimethyl‐4‐oxo‐1H‐quinazoline‐2‐carboxamide], for which the results for the EC50 (at Dd2‐PfATP4^WT; in assay [1]) were 8.4 nM and 7.2 nM, respectively. Moreover, in assay [1], the “effect on membrane ATPase activity (PfATP4)” value was “complete inhibition”.
In the same order, the values of `COc1cc(F)c2c(c1)NC(C)(C(=O)Nc1cncc(Cl)c1)N(C)C2=O` (stereo not drawn) [Compound 36, N‐(5‐Chloropyridin‐3‐yl)‐5‐fluoro‐7‐methoxy‐2,3‐dimethyl‐4‐oxo‐1,2,3,4‐tetrahydroquinazoline‐2‐carboxamide] are 7.8 nM, 8.6 nM and “complete inhibition”.
